Measurements from PMC9184620, “TAS1553, a small molecule subunit interaction inhibitor of ribonucleotide reductase, exhibits antitumor activity by causing DNA replication stress” (Communications Biology, 2022).

Assays:
HCC38 and MV-4-11 cells = assay: Immunoblotting of DNA replication stress and apoptosis markers; format: cell-based, human; conditions: both cell lines
Protocol: Because dATP is a critical metabolite for DNA replication, we next examined whether TAS1553 caused DNA replication stress. We evaluated phosphorylation of Chk1 at Ser345 in HCC38 and MV-4-11 cells by treating them with TAS1553 for 2 h. […] Because phosphorylated RPA2 at Thr21 binds to single-strand DNA at the stalled replication fork[42], TAS1553 may cause the replication fork stalling. To test this possibility, we analyzed the nuclear localization of phosphorylated RPA2 at Thr21.
Next, we examined the effect of TAS1553 on apoptosis induction in HCC38 and MV-4-11 cells. We treated TAS1553 at 1 or 10 µmol/L for 24 h and analyzed the time-dependent change of cleaved PARP and cleaved caspase-3 (Fig. 2g). Compared with control cells (0 h), phosphorylation of Chk1 at Ser345 was increased after 1 h of TAS1553 treatment at 1 and 10 μmol/L in both cell lines. Phosphorylation of RPA2 was also detected after 2 h of treatment with TAS1553 at 10 μmol/L. Following the induction of replication stress and fork stalling, cleaved PARP and cleaved caspase-3 levels were increased in both cell lines after 4 h of TAS1553 treatment at 10 μmol/L or after 8 h of treatment at 1 μmol/L.
Immunoblotting analysis was performed as reported previously. […] Proteins were separated by SDS-PAGE and analyzed by Western blotting. […] The signals were detected with the ImageQuant LAS 4010 (GE Healthcare UK Ltd.).

HCC38 xenograft = assay: Antitumor activity in mice bearing HCC38 xenografts; format: in vivo, mouse; conditions: 100 mg/kg oral once daily for 14 days
Protocol: Next, we evaluated the antitumor activity of a high-dose administration of TAS1553 and cytarabine in rats bearing MV-4-11 xenografts. […] The rats were treated with cytarabine for 5 days at 16 and 32 mg/kg. […] In addition to the hematologic tumor, we evaluated the antitumor activity of TAS1553 in mice implanted with HCC38 cell line as a solid tumor model. […] Finally, TAS1553 was evaluated for its survival benefit in a mouse model. To achieve this, we established mice bone marrow cells harboring the human MLL-AF9 fusion gene, which is known as a driver gene for AML in humans as well as mice[48]. Mice were transplanted with the cells through the tail vein and the treatment with TAS1553 was started 11 days post-implantation.
For the subcutaneous implantation model of MV-4-11, F344/NJcl-rnu/rnu rats were irradiated with X-ray (4 Gy) to improve the efficiency of xenograft implantation. Two days after X-ray irradiation, MV-4-11 cells suspended in PBS with 50 vol% Matrigel were inoculated into the rats (2 × 10^7 cells/animal). In the mice subcutaneous implantation model, HCC38 cells suspended same as above were inoculated into male BALB/cAJcl-nu/nu mice (1 × 10^7 cells /body). The animals were randomized and administered with the compound for 14 days. Antitumor activity and body weight change were evaluated as previously reported. Dunnett test using the SAS software package in EXSUS (CAC Croit) was used to compare the tumor volume (P < 0.05).

HCC38 cells = assay: Cell proliferation assay (CellTiter-Glo), HCC38; format: cell-based; conditions: Homo sapiens, 72 h; HCC38, 3 days exposure
Protocol: Next, we evaluated both concentration-dependent and time-dependent effects of TAS1553 on the dATP pool in HCC38 and MV-4-11 cell lines using absolute quantification. After 2 h of TAS1553 exposure, there was a concentration-dependent reduction of intracellular dATP pool in both cell lines (Fig. 2c). Furthermore, the intracellular dATP pool was reduced within 30 minutes when treated with TAS1553 at 1 or 10 µmol/L in both cell lines (Fig. 2d), consistent with its inhibitory effect on the protein-protein interaction (Fig. 2a).
Cell proliferation assay was performed as reported previously. Briefly, cells were plated and incubated for 1 day, followed by 3 days of exposure to the compound. After compound exposure, viable cells were detected by using the CellTiter-Glo luminescent cell viability assay (Promega). GI50 values were calculated using the SAS software package. The experiment was performed in triplicates.

`Cc1ccc(F)c([C@@H](C)[C@H](NS(=O)(=O)c2ccc(Cl)cc2C(N)=O)c2n[nH]c(=O)o2)c1C` [TAS1553, 5-chloro-2-{N-[(1S,2R)-2-(6-fluoro-2,3-dimethylphenyl)-1-(5-oxo-4,5-dihydro-1,3,4-oxadiazol-2-yl)propyl]sulfamoyl}benzamide] was tested, and the “phosphorylation of Chk1 at Ser345” value (HCC38 and MV-4-11 cells; 1 µmol/L, 2 h) was “markedly induced”, the “cleaved PARP and cleaved caspase-3 levels” value (HCC38 and MV-4-11 cells; after 4 h at 10 μmol/L or 8 h at 1 μmol/L) was “increased” and the T/C ratio (HCC38 xenograft) was 40.4%. The GI50 (HCC38 cells) was 352 nM.
